Laboratory results published in patent US20180071317A1, “USE OF AGENTS THAT ALTER THE PERITUMORAL ENVIRONMENT FOR THE TREATMENT OF CANCER” (SERVICIO ANDALUZ DE SALUD, priority 2011, published 2018).

Legend:
[1] = system: fibroblasts (PHF) co-cultured with tumor cells of human pancreatic adenocarcinoma (CAPAN-1); experiment: Marker expression (IHC) in PHF co-cultured with CAPAN-1 tumor cells; type: cell-based; conditions: co-culture with CAPAN-1; SP 1 μM + antagonist 1 μM; 48 h;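 also: cultures grown in fresh plasma from a healthy human donor, run in six replicates, value is percent of fibroblasts positive for each marker, compared with fibroblasts cultured alone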
Description: All cultures were maintained 48 hours, following which the same cells were included in paraffin blocks for subsequent analysis of the expression of different markers by immunohistochemistry (see Example 1). The primary antibodies used to perform immunohistochemical assays and their concentration are detailed in Example 2. All experiments were carried out sixfold. Analyzed markers in fibroblast cells (stromal cells) were: TGF-α, TGF-β1, TGF-β2, TGF-β3, SPARC, MMP-3, MMP-7, MMP-9, MMP-11, MMP-13 and MMP-14.

[2] = system: fibroblasts (PHF) co-cultured with tumor cells, thyroid carcinoma (reference A-427); experiment: Marker expression (IHC) in PHF co-cultured with thyroid carcinoma tumor cells; type: cell-based, human; conditions: co-culture with thyroid carcinoma cells; SP 1 μM + antagonist 1 μM; 48 h;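 also: grown in fresh plasma from a healthy human donor, read-out is percent of fibroblasts positive for each marker, compared with fibroblasts cultured alone, run in six replicates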
Description: (§1) All cultures were maintained 48 hours, following which the same cells were included in paraffin blocks for subsequent analysis of the expression of different markers by immunohistochemistry (see Example 1). […] All experiments were carried out sixfold. Analyzed markers in fibroblast cells (stromal cells) were: TGF-α, TGF-β1, TGF-β2, TGF-β3, SPARC, MMP-3, MMP-7, MMP-9, MMP-11, MMP-13 and MMP-14.

[3] = system: fibroblasts (PHF) co-cultured with tumor cells, thyroid carcinoma; experiment: as above; type: cell-based, human; conditions: co-culture with thyroid carcinoma cells; SP 1 μM + antagonist 1 μM; 48 h
Description: as §1

[4] = system: fibroblasts (PHF) co-cultured with tumor cells in human prostate carcinoma (22Rv1); experiment: Marker expression (IHC) in PHF co-cultured with 22Rv1 tumor cells; type: cell-based; conditions: co-culture with 22Rv1; SP 1 μM + antagonist 1 μM; 48 h;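 also: cultures grown on fresh plasma from a healthy donor, each experiment run sixfold, values give the percentage of fibroblasts positive for the given marker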
Description: as §1

[5] = system: fibroblasts (PHF) co-cultured with human fibrosarcoma tumor cells (HT-1080); experiment: Marker expression (IHC) in PHF co-cultured with HT-1080 tumor cells; type: cell-based; conditions: co-culture with HT-1080; SP 1 μM + antagonist 1 μM; 48 h;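 also: cultures grown in fresh human plasma from a healthy donor, six replicates, value is percent of fibroblasts positive for the marker, compared with fibroblasts cultured without tumor cells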
Description: as §1

[6] = system: fibroblast cells in co-culture with cells isolated from primary human tumors; experiment: Marker expression (IHC) in fibroblasts co-cultured with primary human tumor cells (colon, pancreatic, lung carcinoma, glioma, multiple myeloma); type: cell-based
Description: To check that the interaction of the human primary tumor cells with stromal cells, [human fibroblasts,] stimulates the secretion of substances of importance for survival and tumor progression, co-cultures were performed using stromal cells with human fibroblast-tumor cells obtained directly from primary human tumors.
On this occasion, in order to identify, using immunohistochemical techniques, the secretion of substances of importance for the survival and progression of tumors, the following antibodies were used: TGF-α (SAB4502953), TGF-β1 (SAB4502954), TGF-β2 (SAB4502956), TGF-β3 (SAB4502957), SPARC (HPA002989), MMP-3 (HPA007875), MMP-7 (SAB4501894), MMP-9 (SAB4501896), MMP-11 (SAB4501898) MMP-13 (SAB4501900) and MMP-14 (SAB4501901) using specific antibodies against them. All antibodies used were rabbit polyclonal antibodies obtained from Sigma-Aldrich and were used at a concentration of 1/1000 to achieve these immunohistochemical studies. All experiments were carried out sixfold.

[7] = system: fibroblasts (PHF) co-cultured with tumor cells of lung carcinoma (A-427); experiment: Marker expression (IHC) in PHF co-cultured with A-427 tumor cells; type: cell-based, human; conditions: co-culture with A-427 lung carcinoma; SP 1 μM + antagonist 1 μM; 48 h;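 also: cultures grown in human blood plasma from a healthy donor, value is the percentage of fibroblasts positive for each marker, six replicates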
Description: as §1

[8] = Primary tumor cells (colon carcinoma) co-cultured + fibroblast + SP (1 μM) + NK1 antagonist 1 μM
[9] = co-culture with cells isolated from glioma, SP 1 μM + antagonist 1 μM
[10] = co-culture with cells isolated from lung cancer, SP 1 μM + antagonist 1 μM
[11] = co-culture with cells isolated from multiple myeloma, SP 1 μM + antagonist 1 μM
[12] = co-culture with cells isolated from pancreatic carcinoma, SP 1 μM + antagonist 1 μM

C[C@@H](O[C@H]1OCCN(Cc2n[nH]c(=O)[nH]2)[C@H]1c1ccc(F)cc1)c1cc(C(F)(F)F)cc(C(F)(F)F)c1 [Aprepitant]
0%: PHF cells expressing MMP-3 [1] | PHF cells expressing MMP-7 [1] | PHF cells expressing MMP-9 [1] | PHF cells expressing MMP-11 [1] | PHF cells expressing MMP-13 [1] | PHF cells expressing MMP-14 [1] | PHF cells expressing SPARC [1] | PHF cells expressing TGF-α [1] | PHF cells expressing TGF-β1 [1] | PHF cells expressing TGF-β2 [1] | PHF cells expressing TGF-β3 [1] | PHF cells expressing MMP-3 [2] | PHF cells expressing MMP-7 [2] | PHF cells expressing MMP-9 [2] | PHF cells expressing MMP-13 [2] | PHF cells expressing MMP-14 [2] | PHF cells expressing SPARC [2] | PHF cells expressing TGF-α [2] | PHF cells expressing TGF-β1 [2] | PHF cells expressing TGF-β2 [2] | PHF cells expressing TGF-β3 [2] | PHF cells expressing MMP-11 [3] | PHF cells expressing MMP-3 [4] | PHF cells expressing MMP-7 [4] | PHF cells expressing MMP-9 [4] | PHF cells expressing MMP-11 [4] | PHF cells expressing MMP-13 [4] | PHF cells expressing MMP-14 [4] | PHF cells expressing SPARC [4] | PHF cells expressing TGF-α [4] | PHF cells expressing TGF-β1 [4] | PHF cells expressing TGF-β2 [4] | PHF cells expressing TGF-β3 [4] | PHF cells expressing MMP-3 [5] | PHF cells expressing MMP-7 [5] | PHF cells expressing MMP-9 [5] | PHF cells expressing MMP-11 [5] | PHF cells expressing MMP-13 [5] | PHF cells expressing MMP-14 [5] | PHF cells expressing SPARC [5] | PHF cells expressing TGF-α [5] | PHF cells expressing TGF-β1 [5] | PHF cells expressing TGF-β2 [5] | PHF cells expressing TGF-β3 [5] | Percentage of fibroblast cells which expressed MMP-3 [6, 8] | Percentage of fibroblast cells which expressed MMP-7 [6, 8] | Percentage of fibroblast cells which expressed MMP-9 [6, 8] | Percentage of fibroblast cells which expressed MMP-11 [6, 8] | Percentage of fibroblast cells which expressed MMP-13 [6, 8] | Percentage of fibroblast cells which expressed MMP-14 [6, 8] | Percentage of fibroblast cells which expressed SPARC [6, 8] | Percentage of fibroblast cells which expressed TGFα [6, 8] | Percentage of fibroblast cells which expressed TGFβ1 [6, 8] | Percentage of fibroblast cells which expressed TGFβ2 [6, 8] | Percentage of fibroblast cells which expressed TGFβ3 [6, 8] | Percentage of fibroblast cells which expressed MMP-3 [6, 9] | Percentage of fibroblast cells which expressed MMP-7 [6, 9] | Percentage of fibroblast cells which expressed MMP-9 [6, 9] | Percentage of fibroblast cells which expressed MMP-11 [6, 9] | Percentage of fibroblast cells which expressed MMP-13 [6, 9] | Percentage of fibroblast cells which expressed MMP-14 [6, 9] | Percentage of fibroblast cells which expressed SPARC [6, 9] | Percentage of fibroblast cells which expressed TGFα [6, 9] | Percentage of fibroblast cells which expressed TGFβ1 [6, 9] | Percentage of fibroblast cells which expressed TGFβ2 [6, 9] | Percentage of fibroblast cells which expressed TGFβ3 [6, 9] | Percentage of fibroblast cells which expressed MMP-3 [6, 10] | Percentage of fibroblast cells which expressed MMP-7 [6, 10] | Percentage of fibroblast cells which expressed MMP-9 [6, 10] | Percentage of fibroblast cells which expressed MMP-11 [6, 10] | Percentage of fibroblast cells which expressed MMP-13 [6, 10] | Percentage of fibroblast cells which expressed MMP-14 [6, 10] | Percentage of fibroblast cells which expressed SPARC [6, 10] | Percentage of fibroblast cells which expressed TGFα [6, 10] | Percentage of fibroblast cells which expressed TGFβ1 [6, 10] | Percentage of fibroblast cells which expressed TGFβ2 [6, 10] | Percentage of fibroblast cells which expressed TGFβ3 [6, 10] | Percentage of fibroblast cells which expressed MMP-3 [6, 11] | Percentage of fibroblast cells which expressed MMP-7 [6, 11] | Percentage of fibroblast cells which expressed MMP-9 [6, 11] | Percentage of fibroblast cells which expressed MMP-11 [6, 11] | Percentage of fibroblast cells which expressed MMP-13 [6, 11] | Percentage of fibroblast cells which expressed MMP-14 [6, 11] | Percentage of fibroblast cells which expressed SPARC [6, 11] | Percentage of fibroblast cells which expressed TGFα [6, 11] | Percentage of fibroblast cells which expressed TGFβ1 [6, 11] | Percentage of fibroblast cells which expressed TGFβ2 [6, 11] | Percentage of fibroblast cells which expressed TGFβ3 [6, 11] | Percentage of fibroblast cells which expressed MMP-3 [6, 12] | Percentage of fibroblast cells which expressed MMP-7 [6, 12] | Percentage of fibroblast cells which expressed MMP-9 [6, 12] | Percentage of fibroblast cells which expressed MMP-11 [6, 12] | Percentage of fibroblast cells which expressed MMP-13 [6, 12] | Percentage of fibroblast cells which expressed MMP-14 [6, 12] | Percentage of fibroblast cells which expressed SPARC [6, 12] | Percentage of fibroblast cells which expressed TGFα [6, 12] | Percentage of fibroblast cells which expressed TGFβ1 [6, 12] | Percentage of fibroblast cells which expressed TGFβ2 [6, 12] | Percentage of fibroblast cells which expressed TGFβ3 [6, 12] | PHF cells expressing MMP-3 [7] | PHF cells expressing MMP-7 [7] | PHF cells expressing MMP-9 [7] | PHF cells expressing MMP-11 [7] | PHF cells expressing MMP-13 [7] | PHF cells expressing MMP-14 [7] | PHF cells expressing SPARC [7] | PHF cells expressing TGF-α [7] | PHF cells expressing TGF-β1 [7] | PHF cells expressing TGF-β2 [7] | PHF cells expressing TGF-β3 [7]
